One experiment concerns S. gordonii. The format is cell-based, S. gordonii Challis (DL1). The protocol:
(§1) 1.3 Determination of antimicrobial activity. The general antimicrobial activity of peptides against planktonic bacteria was determined by a MIC assay in TH broth (all oral streptococci) (Qi et al., 2005).
(§2) S. mutans, S. gordonii Challis (DL1), and S. sanguinis NY101 strains were grown in Todd Hewitt (TH, Fisher) broth medium at 37° C. under anaerobic conditions (80% N2, 10% CO2, and 10% H2). S. mutans strains UA159 (Ajdic et al., 2002), ATCC 25175, and T8 (Rogers, 1975), are wild-type clinical isolates, while comD is a knockout mutant that was constructed previously from the wild-type UA140 background (Qi et al., 2005). Luciferase expressing S. mutans strain JM11 was constructed from UA140 as described (Merritt et al., 2005). Exponentially growing bacterial cells were diluted to ˜1×10^5 cfu/mL in TH and placed into 96-well plates (Fisher). Peptides were then serially diluted and added to the bacteria.

The next experiment has as its system S. mutans. Type of experiment: cell-based, Streptococcus mutans. As for the experimental part: as §1, §2
The subject of another experiment is S. sanguinis. Type of experiment: cell-based, S. sanguinis NY101. As for the experimental part: as §1, §2
The test system of another experiment is S. gordonii biofilms. The experiment is described as follows: Single-species biofilm regrowth after peptide exposure, S. gordonii. The format is cell-based. Conditions: 25 μM peptide, 1 min exposure. As for the experimental part: (§3) 1.5 Examination of antimicrobial activity against single-species biofilms. To initiate biofilm formation, ˜1×10^7 bacteria per well (from overnight cultures) were seeded in TH medium (100 μL) to a 96-well flat-bottom plate. For all streptococci except S. mutans, the medium was supplemented with 0.5% (w/v) mannose and glucose. S. mutans UA159 biofilms were grown with 0.5% (w/v) sucrose. Plates were then centrifuged briefly to pellet the cells, and bacteria were incubated for 3-4 hours at 37° C. for biofilm formation. After incubation, the supernatant was carefully removed and biofilms were treated with 25 μM peptide in 1×PBS or 1×PBS alone for 1 min. The peptide solution was then removed and 100 μL TH was added to further dilute any remaining peptide. To minimize biofilm loss, cells were briefly centrifuged after TH addition, after which the supernatants were removed and fresh medium plus appropriate sugars were returned. Cells were then incubated anaerobically at 37° C. and biofilm growth was monitored over time by measuring absorbance at OD600 with a microplate spectrophotometer (Benchmark Plus, BioRad).

Another experiment concerns S. sanguinis biofilms. Nature of the experiment: Single-species biofilm regrowth after peptide exposure, S. sanguinis. Type of experiment: cell-based. Conditions: 25 μM peptide, 1 min exposure. The protocol: as §3
The test system of a further experiment is S. mutans biofilms. Nature of the experiment: Single-species biofilm regrowth after peptide exposure, S. mutans. Type of experiment: cell-based, Streptococcus mutans. The settings on record: 25 μM peptide, 1 min exposure. As for the experimental part:
as §3

In experiment [1] the test system is S. mutans JM11 mixed with S. mitis, S. sobrinus, S. gordonii, S. sanguinis. Nature of the experiment: Selectivity against multi-species biofilms of oral streptococci. Type of experiment: cell-based. As for the experimental part:
Selectivity of STAMPs against multi-species biofilms of oral streptococci. To measure selectivity of STAMPs, mixed biofilms were seeded to 48-well plates. Streptococcus mitis, S. sobrinus, S. gordonii, and S. sanguinis were mixed with S. mutans strain JM11 (spectinomycin resistant) at a 1:1:1:1:10 ratio, total of 10^5 cells/well. Biofilms were grown overnight in TH medium with 1% sucrose, 1% dextrose, and 1% mannose, for 18-24 h. Mature biofilms were treated with PBS plus STAMP as described for the single-species biofilm assay, with the same controls. After treatment, biofilms were washed 2× in PBS and then physically disrupted with a sterile pipette tip in 100 μL PBS per well. Cell suspensions were then serially diluted 10-fold to 10^-6. Diluted suspensions were then plated on TH medium and TH supplemented with spectinomycin, 800 μg/mL. The total amount of biofilm killing (all streptococci) was determined by counting colonies from TH-only plates. Controls: 100% of untreated corresponds to the number of cfu/mL recorded from untreated biofilms, 0% survival was obtained from ethanol sterilized samples. S. mutans killing was determined from quantitating colonies on TH-spectinomycin plates, and combined total cfu/mL, was utilized to calculate the ratio of S. mutans:total population. 1:1 ratio indicates no selectivity.

For another experiment, the system named is P. aeruginosa. Nature of the experiment: microbe, parasite or virus in culture. Type of experiment: cell-based, Pseudomonas aeruginosa. The protocol:
2.3 Antimicrobial Activities. The general antimicrobial activities of G10KHc, G10, and tobramycin against clinical isolates of P. aeruginosa were evaluated by minimum inhibitory concentration (MIC) assay as previously described (Eckert et al., 2006) and shown in Table 5. MICs are reported in μM, though for familiarity, 1 μM tobramycin=0.468 μg/mL. P. aeruginosa were grown to log phase and adjusted to ˜1×10^5 cfu/mL in Mueller-Hinton (MH) broth and added to 96-well plates. Two-fold serial dilutions of peptide were then added to bacteria and the plates incubated for 18-24 hours at 37° C. MIC was determined as the concentration of peptide present in the last clear well (no growth). […] In contrast to tobramycin, G10KHc was also effective against aminoglycoside and multiple-antibiotic resistant P. aeruginosa isolated from CF patients (AGR10, MR15). Additionally, as mucoid P. aeruginosa are often associated with reduced susceptibility to antimicrobial agents, we were encouraged to find that G10KHc was active against one such strain, PDO300.

Another experiment deals with S. mutans UA159 and comD. Nature of the experiment: Binding of fluorescently labeled peptides to S. mutans (fluorescence microscopy). The arrangement: species or system Streptococcus mutans. Conditions: fluorescently labeled peptide. The source says:
To determine whether there was a region within the CSPC16 sequence that was responsible for S. mutans-specific binding, we synthesized a series of fluorescently labeled CSPC16 fragments, and analyzed their ability to bind to S. mutans. The following strategies were utilized in dissecting the CSPC16 sequence (Table 2): First, a series of fragments were constructed by generating deletions of 3 or 4 amino acids, from the N to C terminus, across the CSPC16 sequence (C16-1 to C16-5). Peptides lacking larger portions of the C or N termini of CSPC16 were also synthesized (C16-6 to C16-12). Additionally, peptides with Arg to […] (a positive to negative change in charge) (C16-4) or Phe to Gly substitutions (for a general decrease in hydrophobicity) (C16-3), as well as peptides representing a 4-residue Ala scan of the C16 sequence were constructed (C 16-15 to C16-18). […] These peptides include C16 (SEQ ID NO 1), C16-3 (SEQ ID NO 39), C16-4 (SEQ ID NO 40), C16-5 (SEQ ID NO 41), C16-6 (SEQ ID NO 42), C16-11 (SEQ ID NO 47), C16-12 (SEQ ID NO 5), C16-16 (SEQ ID NO 51), C16-17 (SEQ ID NO 52), and C16-18 (SEQ ID NO 53).
1.2 Fluorescent labeling of peptides and fluorescence microscopy. Aliquots of CSPC16 (SEQ ID NO 2), CSP-fragment peptides (Table 2), and C16G2 (SEQ ID NO 4) were labeled with carboxyfluorescein (Sigma) as described previously (Eckert et al., 2006). After peptide cleavage but prior to the bacterial labeling assay, fluorescence intensity per μM peptide was checked fluorimetrically (λex=488 nm, λem=520 nm VersaFluor, BioRad) and found to be relatively similar (data not shown). To evaluate the level of peptide binding to bacteria, streptococci from an overnight culture (OD600 of 0.7-1.0) were washed with phosphate buffered saline (1×PBS), diluted 1:2 into 1×PBS, and exposed to peptide (16 μM) for 5 min at 25° C. After incubation with peptide, unbound agent was removed from the bacteria by three cycles of centrifugation (5 min, 16,000×g) and resuspension in 1×PBS. Labeling of oral streptococci was evaluated using brightfield and fluorescence microscopy (Nikon E400) at a 40× magnification. The digital images utilized for the semi-quantitative binding assessment were acquired with the factory-supplied software (SPOT, Diagnostics).

Where two headings read alike, the source gives them in different places. No end group written: not given here.

As a reminder, the MIC is the lowest concentration that inhibits growth of the organism.

For the substance “KNLRIIRKGIHIIKKY-NH2 [Peptide G2, KNLRIIRKGIHIIKKY*]”, the MIC in the experiment with S. gordonii was determined as 41.3 ± 14.0 µM; with S. mutans (S. mutans 25175), 14.8 ± 2.0 µM; in the experiment with S. mutans (S. mutans T8), 14.2 ± 1.5 µM; in the experiment with S. mutans (S. mutans UA159), 12.1 ± 4.5 µM; with S. mutans (S. mutans comD) it was 15.3 ± 4.2 µM; with S. sanguinis, 33.6 ± 7.5 µM. Moreover, the entries for the “biofilm re-growth after treatment (OD600)” value (“biofilm re-growth” for short) with S. gordonii biofilms, in the experiment on S. sanguinis biofilms and in the experiment on S. mutans biofilms were “grew similarly to untreated biofilms”, “grew similarly to untreated biofilms” and “unaffected”, respectively.

On to “TFFRLFNRGGGKNLRIIRKGIHIIKKY-NH2 [Peptide M8G2]”, for which the minimal inhibitory concentration (MIC) against S. gordonii stood at 20 ± 5.0 µM; against S. mutans (S. mutans 25175) it was 3.5 ± 0.5 µM; in the experiment with S. mutans (S. mutans UA159), 3.25 ± 1.9 µM; in the experiment on S. mutans (S. mutans comD), 4.0 ± 2.0 µM; against S. sanguinis, 15 ± 2.5 µM. In addition, the “biofilm re-growth” value is “not those of S. sanguinis” with S. sanguinis biofilms and “capable of inhibiting the recovery of S. mutans biofilms” in the experiment with S. mutans biofilms.

Consider “TFFRLFNRSFTQALGKGGGKLFKFLRKHLL (synthetic selectively/specifically targeted antimicrobial peptide (STAMP) chimeric polypeptide C16-BD2.21)”, for which the “ratio of surviving S. mutans to total Streptococci” value in [1] (1:1 ratio indicates no selectivity) is 0.075. Moreover, the “impact on total cfu/mL population / other oral streptococci (in words)” value in experiment [1] (multi-species biofilm, 20 min) was “no impact on the total cfu/mL population”.

On to “FKKFWKWFRRF-OH [Peptide S6L3-33, FKKFWKWFRRF]”, for which the MIC was found to be 20 ± 5.0 µM against S. gordonii, 7.0 ± 3.0 µM with S. mutans (S. mutans UA159), 6.5 ± 2.5 µM in the experiment with S. mutans (S. mutans comD) and 40 ± 7.5 µM against S. sanguinis.

Take “SGSLSTFFRLFNRSFTQALGK-OH [CSP, reference compound]”: the minimal inhibitory concentration (MIC) in the experiment on S. gordonii (S. gordonii) is over 60 µM; in the experiment on S. mutans (S. mutans 25175), over 60 µM; in the experiment on S. mutans (S. mutans T8) it was over 60 µM; in the experiment with S. mutans (S. mutans UA159), 50.8 ± 9.3 µM; in the experiment with S. mutans (S. mutans comD), over 60 µM; with S. sanguinis (S. sanguinis) it was over 60 µM. Moreover, the “biofilm re-growth” value is “grew similarly to untreated biofilms” in the experiment with S. gordonii biofilms, “grew similarly to untreated biofilms” in the experiment with S. sanguinis biofilms and “unaffected” with S. mutans biofilms.

On to “KKHRKHRKHRKHGGSGGSKNLRRIIRKGIHIIKKYG [Peptide G10KHc]”, for which, in the experiment with P. aeruginosa, the MIC range lay in the range of 0.5 to 29 µM and the “mean MIC” value stood at 6.22 µM.

For the substance “KKHRKHRKHRKH (synthetic targeting peptide Cat-1 domain, KH domain)”, in the experiment with P. aeruginosa (data not shown), the “antimicrobial activity of targeting domain alone” value was “does not have any antimicrobial activity”.

For “TRRRLFNRSFTQALGKSGGGFKKFWKWFRRF-OH [Peptide C16-33]”, the MIC in the experiment on S. gordonii came out at 14.6 ± 5.0 µM; with S. sanguinis it was 13.3 ± 5.8 µM. The “biofilm re-growth” value in the experiment with S. sanguinis biofilms is recorded as “not affected”; in the experiment with S. mutans biofilms it was “capable of retarding S. mutans biofilm growth”.

Consider “NIFEYFLEGGGKLFKFLRKHLL (synthetic selectively/specifically targeted antimicrobial peptide (STAMP) chimeric polypeptide 1903-BD2.21)”, for which, in experiment [1] (multi-species biofilm, 20 min), the “impact on total cfu/mL population / other oral streptococci (in words)” value is on record as “some impact on other oral streptococci” and the “reduction of total population” value is given as “about 30%”.

As to “TFFRAAAASFTQALGK (synthetic competence stimulating peptide (CSP) fragment peptide C16-16 with 4-residue Ala scan)”, in the experiment on S. mutans UA159 and comD, the “binding to S. mutans (in words)” value is listed as “binding but at a weaker intensity than CSPC16”.

In the case of “TFFRL (synthetic competence stimulating peptide (CSP) fragment peptide C16-11 with C-terminal deletion)”, the “binding to S. mutans (in words)” value in the experiment with S. mutans UA159 and comD is reported as “binding but at a weaker intensity than CSPC16”.

Consider “TFFRLFNRSGGGFKKFWKWFRRF-OH [Peptide M8-33]”, for which the MIC against S. gordonii was determined as 10 ± 2.5 µM; against S. mutans (S. mutans UA159), 2.5 ± 2.0 µM; with S. mutans (S. mutans comD), 2.5 ± 2.0 µM; in the experiment on S. sanguinis, 20 ± 2.0 µM. In addition, the results for the “biofilm re-growth” value with S. sanguinis biofilms and in the experiment with S. mutans biofilms were “not affected” and “capable of retarding S. mutans biofilm growth”, respectively.

On to “TFFRLFNRAAAAALGK (synthetic competence stimulating peptide (CSP) fragment peptide C16-17 with 4-residue Ala scan)”, for which the “binding to S. mutans (in words)” value with S. mutans UA159 and comD was “binding but at a weaker intensity than CSPC16”.

Take KLFKFLRKHLL-OH [BD2.21, KLFKFLRKHLL]: in the experiment with S. mutans (planktonic S. mutans), the minimal inhibitory concentration (MIC) amounted to 5.5 µM. That is a single-digit micromolar value.

Regarding “TFFRLFTQALGK (synthetic competence stimulating peptide (CSP) fragment peptide C16-3 with internal deletion)”, the “binding to S. mutans (in words)” value with S. mutans UA159 and comD is given as “binding but at a weaker intensity than CSPC16”.

The values above are taken from patent publication US8680058B2, “Selectively targeted antimicrobial peptides and the use thereof” (priority 2006, dated 2014).
